According to the kinase profiling compilation of Christmann-Franck et al. (2016):

Experiments:
Assay in all cases: radiometric filter-binding kinase assay
[1] = target: IRAK1 (human) (UniProt P51617)
[2] = target: TEK (human) (UniProt Q02763)
[3] = target: TESK1 (human) (UniProt Q15569)
[4] = target: SRPK1 (human) (UniProt Q96SB4)
[5] = test system: OXSR1 (human), O95747 [T185E]
[6] = target: STK16 (human) (UniProt O75716)
[7] = target: ABL1 (human) (UniProt P00519)
[8] = target: TLK1 (human) (UniProt Q9UKI8)
[9] = target: GSK3B (human) (UniProt P49841)
Chain of GSK3B (human) (P49841 whole entry, looked up): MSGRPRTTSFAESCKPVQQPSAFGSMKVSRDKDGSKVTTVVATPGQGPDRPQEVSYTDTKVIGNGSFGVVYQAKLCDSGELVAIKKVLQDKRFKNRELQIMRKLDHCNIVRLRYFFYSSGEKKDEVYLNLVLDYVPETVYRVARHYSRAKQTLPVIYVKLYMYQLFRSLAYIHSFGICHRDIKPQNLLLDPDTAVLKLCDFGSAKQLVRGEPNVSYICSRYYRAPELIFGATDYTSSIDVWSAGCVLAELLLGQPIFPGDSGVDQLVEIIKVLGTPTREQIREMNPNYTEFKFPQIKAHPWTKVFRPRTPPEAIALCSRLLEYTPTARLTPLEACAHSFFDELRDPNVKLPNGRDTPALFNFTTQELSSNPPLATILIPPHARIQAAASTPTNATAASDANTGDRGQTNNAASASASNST

[10] = target: ZAP70 (human) (UniProt P43403)
[11] = target: PRKCG (human) (UniProt P05129)
[12] = target: PTK6 (human) (UniProt Q13882)
[13] = target: STK33 (human) (UniProt Q9BYT3)
[14] = target: EIF2AK3 (human) (UniProt Q9NZJ5)
Chain of EIF2AK3 (human) (Q9NZJ5 whole entry, looked up): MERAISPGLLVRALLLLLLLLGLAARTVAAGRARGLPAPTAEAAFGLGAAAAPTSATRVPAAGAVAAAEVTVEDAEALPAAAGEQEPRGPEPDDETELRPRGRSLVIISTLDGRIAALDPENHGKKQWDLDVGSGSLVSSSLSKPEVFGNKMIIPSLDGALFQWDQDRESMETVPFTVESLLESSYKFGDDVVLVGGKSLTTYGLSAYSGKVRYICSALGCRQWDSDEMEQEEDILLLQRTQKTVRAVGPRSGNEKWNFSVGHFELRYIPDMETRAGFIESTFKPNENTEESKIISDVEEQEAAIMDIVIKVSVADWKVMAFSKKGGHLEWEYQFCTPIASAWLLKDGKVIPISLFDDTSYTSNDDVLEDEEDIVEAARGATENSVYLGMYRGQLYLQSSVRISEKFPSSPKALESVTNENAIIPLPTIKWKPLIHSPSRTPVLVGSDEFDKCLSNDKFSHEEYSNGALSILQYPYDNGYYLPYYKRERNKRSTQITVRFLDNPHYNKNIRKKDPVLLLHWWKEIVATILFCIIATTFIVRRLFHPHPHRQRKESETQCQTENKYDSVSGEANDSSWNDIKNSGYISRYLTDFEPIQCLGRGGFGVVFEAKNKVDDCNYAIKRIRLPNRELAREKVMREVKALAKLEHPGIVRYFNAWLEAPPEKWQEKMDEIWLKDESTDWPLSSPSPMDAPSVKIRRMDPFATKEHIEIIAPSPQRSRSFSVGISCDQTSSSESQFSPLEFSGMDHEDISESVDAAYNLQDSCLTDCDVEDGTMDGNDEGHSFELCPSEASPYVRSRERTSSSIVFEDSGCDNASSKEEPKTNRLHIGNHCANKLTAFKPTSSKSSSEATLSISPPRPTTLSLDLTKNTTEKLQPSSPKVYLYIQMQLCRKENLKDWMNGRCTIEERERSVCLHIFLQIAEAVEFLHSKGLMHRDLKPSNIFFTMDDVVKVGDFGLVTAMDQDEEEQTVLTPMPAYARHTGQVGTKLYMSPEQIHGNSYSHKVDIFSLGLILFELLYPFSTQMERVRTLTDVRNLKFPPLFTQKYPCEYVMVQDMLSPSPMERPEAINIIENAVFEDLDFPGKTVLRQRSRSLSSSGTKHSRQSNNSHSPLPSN

[15] = target: TTBK1 (human) (UniProt Q5TCY1)
Chain of TTBK1 (human) (Q5TCY1 whole entry, looked up): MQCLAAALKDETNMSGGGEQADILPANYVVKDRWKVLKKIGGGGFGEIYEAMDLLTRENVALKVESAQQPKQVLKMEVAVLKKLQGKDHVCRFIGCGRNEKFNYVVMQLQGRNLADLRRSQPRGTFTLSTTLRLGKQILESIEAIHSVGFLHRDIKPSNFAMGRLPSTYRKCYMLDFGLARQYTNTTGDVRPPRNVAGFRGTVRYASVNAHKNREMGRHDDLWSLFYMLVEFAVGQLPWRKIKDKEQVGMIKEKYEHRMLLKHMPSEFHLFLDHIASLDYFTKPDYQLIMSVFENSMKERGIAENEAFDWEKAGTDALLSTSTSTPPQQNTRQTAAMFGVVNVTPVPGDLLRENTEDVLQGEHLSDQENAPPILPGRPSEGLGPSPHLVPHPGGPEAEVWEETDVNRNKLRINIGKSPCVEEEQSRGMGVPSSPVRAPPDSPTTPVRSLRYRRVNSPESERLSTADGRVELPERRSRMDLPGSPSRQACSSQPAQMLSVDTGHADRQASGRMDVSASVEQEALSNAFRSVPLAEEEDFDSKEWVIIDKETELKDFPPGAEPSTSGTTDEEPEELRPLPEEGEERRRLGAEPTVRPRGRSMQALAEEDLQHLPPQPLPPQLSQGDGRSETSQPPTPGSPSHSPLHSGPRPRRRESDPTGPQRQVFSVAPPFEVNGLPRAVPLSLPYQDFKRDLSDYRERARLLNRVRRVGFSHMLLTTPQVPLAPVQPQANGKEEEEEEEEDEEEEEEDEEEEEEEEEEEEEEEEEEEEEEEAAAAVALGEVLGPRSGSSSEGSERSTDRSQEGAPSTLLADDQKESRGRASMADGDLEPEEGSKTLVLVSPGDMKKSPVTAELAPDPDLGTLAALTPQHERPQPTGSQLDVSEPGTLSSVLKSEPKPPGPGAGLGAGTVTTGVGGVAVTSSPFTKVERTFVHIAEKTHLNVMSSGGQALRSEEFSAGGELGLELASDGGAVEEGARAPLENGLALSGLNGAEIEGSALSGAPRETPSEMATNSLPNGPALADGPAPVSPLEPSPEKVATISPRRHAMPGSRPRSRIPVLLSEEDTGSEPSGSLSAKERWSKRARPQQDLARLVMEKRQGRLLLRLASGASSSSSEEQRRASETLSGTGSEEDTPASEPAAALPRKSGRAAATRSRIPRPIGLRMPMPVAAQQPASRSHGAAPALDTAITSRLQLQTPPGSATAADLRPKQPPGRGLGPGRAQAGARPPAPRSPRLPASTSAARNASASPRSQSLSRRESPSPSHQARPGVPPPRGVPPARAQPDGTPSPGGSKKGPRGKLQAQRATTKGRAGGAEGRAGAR

[16] = target: TSSK1B (human) (UniProt Q9BXA7)
Chain of TSSK1B (human) (Q9BXA7 whole entry, looked up): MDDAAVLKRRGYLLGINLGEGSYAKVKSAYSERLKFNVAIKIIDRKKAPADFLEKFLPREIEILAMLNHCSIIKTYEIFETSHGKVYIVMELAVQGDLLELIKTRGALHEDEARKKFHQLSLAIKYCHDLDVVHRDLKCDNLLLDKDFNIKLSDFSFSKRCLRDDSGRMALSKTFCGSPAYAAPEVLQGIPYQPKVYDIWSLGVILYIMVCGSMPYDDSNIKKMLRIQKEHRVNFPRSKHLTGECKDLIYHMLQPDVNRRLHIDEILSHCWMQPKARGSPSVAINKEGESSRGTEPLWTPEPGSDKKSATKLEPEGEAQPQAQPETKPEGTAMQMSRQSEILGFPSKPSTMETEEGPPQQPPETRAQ

Chain of ABL1 (human) (P00519 whole entry, looked up): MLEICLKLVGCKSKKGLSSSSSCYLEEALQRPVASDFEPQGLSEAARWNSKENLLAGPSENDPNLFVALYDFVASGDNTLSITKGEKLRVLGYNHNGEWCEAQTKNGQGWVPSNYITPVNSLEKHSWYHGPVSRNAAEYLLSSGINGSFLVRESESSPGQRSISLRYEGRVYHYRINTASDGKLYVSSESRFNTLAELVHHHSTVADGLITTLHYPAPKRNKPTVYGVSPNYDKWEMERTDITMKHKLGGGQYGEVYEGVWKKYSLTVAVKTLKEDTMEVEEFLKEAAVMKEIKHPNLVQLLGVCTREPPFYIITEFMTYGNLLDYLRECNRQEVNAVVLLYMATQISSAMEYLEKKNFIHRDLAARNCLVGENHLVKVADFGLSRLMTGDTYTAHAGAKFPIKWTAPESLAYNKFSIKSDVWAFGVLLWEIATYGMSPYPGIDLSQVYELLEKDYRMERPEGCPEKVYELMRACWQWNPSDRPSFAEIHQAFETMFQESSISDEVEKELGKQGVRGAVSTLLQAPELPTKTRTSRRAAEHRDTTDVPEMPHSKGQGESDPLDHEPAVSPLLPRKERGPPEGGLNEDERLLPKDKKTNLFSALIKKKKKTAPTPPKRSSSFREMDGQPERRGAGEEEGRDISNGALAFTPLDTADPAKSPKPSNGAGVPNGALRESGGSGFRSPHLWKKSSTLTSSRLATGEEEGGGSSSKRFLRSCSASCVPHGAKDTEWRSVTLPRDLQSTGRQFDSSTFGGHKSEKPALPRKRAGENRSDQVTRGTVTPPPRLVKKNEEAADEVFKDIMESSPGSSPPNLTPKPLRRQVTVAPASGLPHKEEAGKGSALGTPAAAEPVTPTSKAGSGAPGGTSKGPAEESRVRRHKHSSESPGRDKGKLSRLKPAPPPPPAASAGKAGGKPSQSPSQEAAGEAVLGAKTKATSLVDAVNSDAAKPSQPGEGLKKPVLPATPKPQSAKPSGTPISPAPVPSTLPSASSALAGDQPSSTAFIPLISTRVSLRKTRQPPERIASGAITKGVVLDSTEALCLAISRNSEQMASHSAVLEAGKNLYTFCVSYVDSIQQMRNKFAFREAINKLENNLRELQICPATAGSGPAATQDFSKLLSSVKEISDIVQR

Structure (SMILES): C=CC(=O)N1CCC[C@@H](n2nc(-c3ccc(Oc4ccccc4)cc3)c3c(N)ncnc32)C1
- residual activity ([1]; compound 0.1 µM): 108%
- residual activity ([1]; compound 1.0 µM): 115%
- residual activity ([2]; compound 0.1 µM): 71%
- residual activity ([2]; compound 1.0 µM): 34%
- residual activity ([2]; compound 10.0 µM): 9%
- residual activity ([3]; compound 0.1 µM): 69%
- residual activity ([3]; compound 1.0 µM): 71%
- residual activity ([3]; compound 10.0 µM): 38%
- residual activity ([4]; compound 0.1 µM): 100%
- residual activity ([4]; compound 1.0 µM): 115%
- residual activity ([4]; compound 10.0 µM): 99%
- residual activity ([5]; compound 0.1 µM): 96%
- residual activity ([5]; compound 1.0 µM): 96%
- residual activity ([5]; compound 10.0 µM): 82%
- residual activity ([6]; compound 0.1 µM): 99%
- residual activity ([6]; compound 1.0 µM): 117%
- residual activity ([6]; compound 10.0 µM): 104%
- residual activity ([7]; compound 0.1 µM): 87%
- residual activity ([7]; compound 1.0 µM): 80%
- residual activity ([7]; compound 10.0 µM): 39%
- residual activity ([8]; compound 1.0 µM): 99%
- residual activity ([9]; compound 0.1 µM): 104%
- residual activity ([9]; compound 1.0 µM): 95%
- residual activity ([9]; compound 10.0 µM): 75%
- residual activity ([10]; compound 0.1 µM): 93%
- residual activity ([10]; compound 1.0 µM): 107%
- residual activity ([10]; compound 10.0 µM): 101%
- residual activity ([11]; compound 0.1 µM): 85%
- residual activity ([11]; compound 1.0 µM): 104%
- residual activity ([11]; compound 10.0 µM): 99%
- residual activity ([12]; compound 0.1 µM): 10%
- residual activity ([12]; compound 1.0 µM): 4%
- residual activity ([12]; compound 10.0 µM): 8%
- residual activity ([13]; compound 0.1 µM): 97%
- residual activity ([13]; compound 1.0 µM): 84%
- residual activity ([14]; compound 0.1 µM): 110%
- residual activity ([14]; compound 1.0 µM): 81%
- residual activity ([14]; compound 10.0 µM): 28%
- residual activity ([15]; compound 0.1 µM): 78%
- residual activity ([15]; compound 1.0 µM): 100%
- residual activity ([15]; compound 10.0 µM): 81%
- residual activity ([16]; compound 0.1 µM): 105%
- residual activity ([16]; compound 1.0 µM): 108%
- residual activity ([16]; compound 10.0 µM): 68%

Structure (SMILES): Cc1cc(N=Nc2cc(S(=O)(=O)O)c(C)cc2C)c(N)cc1O
- residual activity ([1]; compound 100.0 µM): 104%
- residual activity ([2]; compound 100.0 µM): 103%
- residual activity ([3]; compound 100.0 µM): 73%
- residual activity ([4]; compound 100.0 µM): 59%
- residual activity ([5]; compound 100.0 µM): 97%
- residual activity ([6]; compound 100.0 µM): 111%
- residual activity ([7]; compound 100.0 µM): 92%
- residual activity ([8]; compound 100.0 µM): 108%
- residual activity ([9]; compound 100.0 µM): 31%
- residual activity ([10]; compound 100.0 µM): 103%
- residual activity ([11]; compound 100.0 µM): 55%
- residual activity ([12]; compound 100.0 µM): 100%
- residual activity ([13]; compound 100.0 µM): 107%
- residual activity ([14]; compound 100.0 µM): 94%
- residual activity ([15]; compound 100.0 µM): 94%
- residual activity ([16]; compound 100.0 µM): 107%

Structure (SMILES): O=C(NOC[C@H](O)CO)c1ccc(F)c(F)c1Nc1ccc(I)cc1Cl
- residual activity ([1]; compound 1.0 µM): 84%
- residual activity ([1]; compound 10.0 µM): 89%
- residual activity ([2]; compound 10.0 µM): 96%
- residual activity ([4]; compound 1.0 µM): 80%
- residual activity ([4]; compound 10.0 µM): 95%
- residual activity ([5]; compound 1.0 µM): 95%
- residual activity ([5]; compound 10.0 µM): 93%
- residual activity ([6]; compound 1.0 µM): 85%
- residual activity ([6]; compound 10.0 µM): 101%
- residual activity ([7]; compound 1.0 µM): 103%
- residual activity ([7]; compound 10.0 µM): 98%
- residual activity ([8]; compound 1.0 µM): 96%
- residual activity ([8]; compound 10.0 µM): 104%
- residual activity ([9]; compound 1.0 µM): 70%
- residual activity ([9]; compound 10.0 µM): 88%
- residual activity ([10]; compound 1.0 µM): 84%
- residual activity ([10]; compound 10.0 µM): 100%
- residual activity ([11]; compound 1.0 µM): 91%
- residual activity ([11]; compound 10.0 µM): 99%
- residual activity ([12]; compound 1.0 µM): 115%
- residual activity ([12]; compound 10.0 µM): 121%
- residual activity ([13]; compound 10.0 µM): 107%
- residual activity ([14]; compound 1.0 µM): 96%
- residual activity ([14]; compound 10.0 µM): 105%

Structure (SMILES): O=C(Nc1nc2cc(C(F)(F)F)cc(NC3CC3)n2n1)c1cccnc1
- residual activity ([1]; compound 0.01 µM): 94%
- residual activity ([1]; compound 0.1 µM): 100%
- residual activity ([1]; compound 1.0 µM): 89%
- residual activity ([2]; compound 0.01 µM): 94%
- residual activity ([2]; compound 0.1 µM): 103%
- residual activity ([2]; compound 1.0 µM): 69%
- residual activity ([4]; compound 0.01 µM): 100%
- residual activity ([4]; compound 0.1 µM): 90%
- residual activity ([4]; compound 1.0 µM): 102%
- residual activity ([5]; compound 0.01 µM): 83%
- residual activity ([5]; compound 0.1 µM): 114%
- residual activity ([5]; compound 1.0 µM): 92%
- residual activity ([6]; compound 0.01 µM): 82%
- residual activity ([6]; compound 0.1 µM): 96%
- residual activity ([6]; compound 1.0 µM): 83%
- residual activity ([7]; compound 0.01 µM): 95%
- residual activity ([7]; compound 1.0 µM): 97%
- residual activity ([8]; compound 0.01 µM): 107%
- residual activity ([8]; compound 0.1 µM): 99%
- residual activity ([8]; compound 1.0 µM): 90%
- residual activity ([9]; compound 0.01 µM): 87%
- residual activity ([9]; compound 0.1 µM): 92%
- residual activity ([9]; compound 1.0 µM): 79%
- residual activity ([10]; compound 0.01 µM): 76%
- residual activity ([10]; compound 0.1 µM): 77%
- residual activity ([10]; compound 1.0 µM): 84%
- residual activity ([11]; compound 0.01 µM): 101%
- residual activity ([11]; compound 0.1 µM): 115%
- residual activity ([11]; compound 1.0 µM): 106%
- residual activity ([12]; compound 0.01 µM): 114%
- residual activity ([12]; compound 0.1 µM): 130%
- residual activity ([12]; compound 1.0 µM): 124%
- residual activity ([13]; compound 0.01 µM): 97%
- residual activity ([13]; compound 0.1 µM): 106%
- residual activity ([13]; compound 1.0 µM): 88%
- residual activity ([14]; compound 0.01 µM): 109%
- residual activity ([14]; compound 0.1 µM): 117%
- residual activity ([14]; compound 1.0 µM): 104%
